Assay results reported in US9113629B2, “4-amino-6-(4-substituted-phenyl)-picolinates and 6-amino-2-(4-substituted-phenyl)-pyrimidine-4-carboxylates and their use as herbicides” (DOW AGROSCIENCES LLC, priority 2013, dated 2015).
Read-outs that look alike come from different tables or passages of the source.

Legend:
[1] = tested on: Key Broadleaf Weed and Crop Species; assay: Post-emergent Test II herbicidal activity (Table 5); type: in vivo; details: post-emergence, 336 h, post-emergent, 14 days after application; for pest or weed control at 70 g/ha: 70 g ai/ha; for pest or weed control at 140 g/ha: 140 g ai/ha
Procedure, shortened: (§1)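 Test species were raised 7–21 d under greenhouse conditions until reaching the first or second true leaf, sprayed with formulated compound at 187 L/ha, and kept subirrigated to avoid wash-off. Fourteen days later, damage was rated visually on a 0–100% scale against untreated plants.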

[2] = tested on: Key Grass and Sedge Weeds as well as Grass Crops; assay: Post-emergent Test II herbicidal activity (Table 6); type: in vivo; details: post-emergence, 336 h; for pest or weed control at 70 g/ha: application rate 70 g ai/ha; for pest or weed control at 140 g/ha: application rate 140 g ai/ha
Procedure, shortened: as §1

[3] = ABUTH: velvetleaf (Abutilon theophrasti), read-out: Visual Growth Reduction (%) 14 Days After Application ABUTH
[4] = AMARE: redroot pigweed (Amaranthus retroflexus), read-out: Visual Growth Reduction (%) 14 Days After Application AMARE
[5] = BRSNN: oilseed-rape, canola (Brassica napus), read-out: Visual Growth Reduction (%) 14 Days After Application BRSNN
[6] = CHEAL: lambsquarters (Chenopodium album), read-out: Visual Growth Reduction (%) 14 Days After Application CHEAL
[7] = EPHHL: wild poinsettia (Euphorbia heterophylla), read-out: Visual Growth Reduction (%) 14 Days After Application EPHHL
[8] = HELAN: sunflower (Helianthus annuus), read-out: Visual Growth Reduction (%) 14 Days After Application HELAN
[9] = VIOTR: wild pansy (Viola tricolor), read-out: Visual Growth Reduction (%) 14 Days After Application VIOTR
[10] = CYPES: yellow nutsedge (Cyperus esculentus), read-out: Visual Growth Reduction (%) 14 Days After Application, CYPES
[11] = DIGSA: crabgrass (Digitaria sanguinalis), read-out: Visual Growth Reduction (%) 14 Days After Application, DIGSA
[12] = ECHCG: barnyardgrass (Echinochloa crus-galli), read-out: Visual Growth Reduction (%) 14 Days After Application, ECHCG
[13] = ORYSA: rice (Oryza sativa), read-out: Visual Growth Reduction (%) 14 Days After Application, ORYSA
[14] = SETFA: giant foxtail (Setaria faberi), read-out: Visual Growth Reduction (%) 14 Days After Application, SETFA
[15] = SORVU: grain sorghum (Sorghum vulgare), read-out: Visual Growth Reduction (%) 14 Days After Application, SORVU
[16] = TRZSS (wheat, Triticum aestivum), read-out: Visual Growth Reduction (%) 14 Days After Application, TRZSS
[17] = ZEAMX: maize, corn (Zea mays), read-out: Visual Growth Reduction (%) 14 Days After Application, ZEAMX

N#Cc1ccc(-c2nc(C(=O)O)c(Cl)c(N)c2F)c(F)c1 [Compound 65, 4-amino-3-chloro-6-(4-cyano-2-fluorophenyl)-5-fluoropicolinic acid]
pest or weed control at 70 g/ha [1, 3]: 0 to 29% | pest or weed control at 140 g/ha [1, 3]: 0 to 29% | pest or weed control at 70 g/ha [1, 4]: 95 to 100% | pest or weed control at 140 g/ha [1, 4]: 95 to 100% | pest or weed control at 70 g/ha [1, 5]: 0 to 29% | pest or weed control at 140 g/ha [1, 5]: 30 to 44% | pest or weed control at 70 g/ha [1, 6]: 60 to 74% | pest or weed control at 140 g/ha [1, 6]: 75 to 84% | pest or weed control at 70 g/ha [1, 7]: 95 to 100% | pest or weed control at 140 g/ha [1, 7]: 95 to 100% | pest or weed control at 70 g/ha [1, 8]: 85 to 94% | pest or weed control at 140 g/ha [1, 8]: 95 to 100% | pest or weed control at 70 g/ha [1, 9]: 0 to 29% | pest or weed control at 140 g/ha [1, 9]: 30 to 44% | pest or weed control at 70 g/ha [2, 10]: 0 to 29% | pest or weed control at 140 g/ha [2, 10]: 0 to 29% | pest or weed control at 70 g/ha [2, 11]: 0 to 29% | pest or weed control at 140 g/ha [2, 11]: 0 to 29% | pest or weed control at 70 g/ha [2, 12]: 0 to 29% | pest or weed control at 140 g/ha [2, 12]: 0 to 29% | pest or weed control at 70 g/ha [2, 13]: 0 to 29% | pest or weed control at 140 g/ha [2, 13]: 0 to 29% | pest or weed control at 70 g/ha [2, 14]: 0 to 29% | pest or weed control at 140 g/ha [2, 14]: 0 to 29% | pest or weed control at 70 g/ha [2, 15]: 0 to 29% | pest or weed control at 140 g/ha [2, 15]: 0 to 29% | pest or weed control at 70 g/ha [2, 16]: 0 to 29% | pest or weed control at 140 g/ha [2, 16]: 0 to 29% | pest or weed control at 70 g/ha [2, 17]: 0 to 29% | pest or weed control at 140 g/ha [2, 17]: 0 to 29%
